Structures are written as SMILES.

For the compound `Nc1ccc([C@@H](O)CNC[C@@H]2CCc3cc(S(=O)(=O)Nc4ccc(-n5nnn(CCCC6CCCC6)c5=O)cc4)ccc3O2)cn1`, the melting point was in the range of 99.3 to 99.7 °C.

Take `CCOC(=O)c1c(-c2ccc(F)cc2)c2nccnc2c(=O)n1C`: the melting point fell in the range of 221 to 222 °C.

Regarding `CCOC(=O)COc1cccc(-c2cc(O)c(SCCc3ccccc3)c(=O)o2)c1`, the melting point was in the range of 116 to 119 °C.

The compound `CC1Sc2c(C(=O)O)c(=O)c3cc(F)c(N4CCNCC4)c(F)c3n21` (stereo not given) registered a melting point of 260 °C.

Turning to `COC(=O)C(c1cc2c(cc1Cl)OCO2)c1cn(C)c2cc(Br)ccc12` (stereo not given), the melting point is 183 to 185 °C.

In turn, `O=[N+]([O-])c1ccc(F)c2ccccc12` gave a melting point of 75 to 76 °C.

In turn, `COc1ccc(C)cc1NC(=O)Nc1ccc(N2CCN(C(=O)Nc3cc(OCCO)ccc3C)CC2)cc1` registered a melting point of 121 to 124 °C.

In turn, `N=C(O)c1cc(C(O)=Nc2ccc(O)cc2)c(C(=O)O)cc1C(=O)O` displayed a melting point of 300 °C.

Regarding `O=C1C(O)=C([N+](=O)[O-])C(=O)c2ccc(Br)cc21`, the melting point amounted to 172 °C.

With `CCCCCCC(=O)C=Cc1ccc(OCc2ccccc2)c(OC)c1`, the melting point was 78 to 81 °C.

With `Cc1noc(C)c1-c1ccccc1C=NC(c1ccccc1)c1ccccc1`, the melting point fell in the range of 165 to 167 °C.

`Cc1ccc(-c2ncc(N(CCCCOCC(=O)O)C(C)C)nc2-c2ccc(C)cc2)cc1`: the melting point lay in the range of 155 to 156 °C.

As to `Nc1cnccc1Oc1ccc2[nH]ccc2c1`, the melting point lay in the range of 155 to 157 °C.

Compound `Cc1c(NC(=O)c2ccc(-c3ccc(F)cc3)cc2)ccc2cc(CN3CCC(CC(N)=O)CC3)cnc12` registered a melting point of 258 to 260 °C.

Compound `CC(=O)Oc1cc(OC(C)=O)cc(OC(C)=O)c1` displayed a melting point of 105 to 106 °C.

Compound `CC(C)(C)OC(=O)N1CCC(=Cc2ccc3ccccc3n2)CC1` showed a melting point of 72 to 73 °C.

Regarding `O=C1Nc2ccccc2SC1CCCCO` (stereo not given), the melting point was in the range of 101 to 102 °C.

For `CCCCCCCCn1c(=O)c2c(N3CCN(C)CC3)cc(Cl)cc2n(Cc2ccccc2)c1=O`, the melting point was in the range of 78 to 80 °C.

In the case of `O=[N+]([O-])c1ccc2c(cnn2Cc2ccccc2[N+](=O)[O-])c1`, the melting point lay within 102 to 103 °C.

Turning to `NS(=O)(=O)c1ccc(-c2nc(-c3cnn4c(C(F)(F)F)cc(-c5ccc(C(F)(F)F)cc5)nc34)no2)s1`, the melting point amounted to 272 °C.

`CCOc1cc2cc(CO)cc(-c3ccnc(-n4nc(C)c5ccccc5c4=O)c3)c2cc1OCC` gave a melting point of 220 to 221 °C.

`CS(=O)(=O)Nc1cccc(S(=O)(=O)N2CCOc3c(N4CCNCC4)cccc32)c1` had a melting point of 158 to 164 °C.

Turning to `CCCCc1oc2ccccc2c1C(OC)c1cc(I)c(OCCN(CC)CC)c(I)c1` (stereo not given), the melting point lay within 96 to 98 °C.

The compound `C=C1SC(=O)N(c2ccc3cc(-c4ccc(OC)c(C56CC7CC(CC(C7)C5)C6)c4)ccc3c2)C1=O` registered a melting point of 286 to 287 °C.

Take `Cc1ccc(S(=O)(=O)ON2C(=O)c3ccc(C(=O)Cl)cc3C2=O)cc1`: the melting point fell in the range of 131 to 133 °C.

In turn, `NC(=O)CN1CCN(c2ccc(NC(=O)c3ccccc3-c3ccc(C(F)(F)F)cc3)cc2)CC1` had a melting point of 226 to 228 °C.

`O=C(C=c1sc2n(c1=O)Cc1ccccc1N=2)Oc1ccccc1` gave a melting point of 194 to 195 °C.

`Cc1cc(C)cc(NC(=O)CN2CCN(c3ncccc3C#N)CC2)c1` yielded a melting point of 139 to 140 °C.

As for `CCCCCCCCCCCCCCOc1ccc(O)cc1`, the melting point fell in the range of 81 to 82 °C.

For the compound `CCC1(C)C(=O)c2c(cc(OC)c(Cl)c2Cl)C1c1ccccc1` (stereo not given), the melting point is 132 °C.

In turn, `Cc1ccc(S(=O)(=O)OCC2Cc3cc(Cl)cc(-c4ccsc4)c3O2)cc1` (stereo not given) came in with a melting point of 115 to 117 °C.

On to `CC(C)(C(=O)O)n1c(=O)[nH]c2cc(Cl)ccc2c1=O`, for which the melting point was in the range of 260 to 263 °C.

For the compound `Cc1ccc(Oc2ccc(-n3cccc3)cc2)c(O)c1`, the melting point lay within 95 to 96 °C.

`O=[N+]([O-])c1oc2ccc(CCO)cc2c1-c1ccccc1` registered a melting point of 169 to 173 °C.

Regarding `Nc1cc(F)c(Sc2ccc(C(F)(F)F)cc2Cl)cc1F`, the melting point was found to be 95.9 °C.

In turn, `CCOC(=O)COc1ccc(SCc2ccnc3[nH]c(-c4ccc(C(F)(F)F)cc4)nc23)cc1C` yielded a melting point of 239 to 241 °C.

Regarding `COc1cc(F)ccc1-c1ccnc(NC(=O)[C@H]2CC[C@@H](NC(C)=O)C2)c1`, the melting point lay within 125 to 129 °C.

Regarding `OC1CCN(c2nnc(Cl)c3ccccc23)CC1`, the melting point was 139 to 142 °C.

Turning to `CN1CCCC[C@H]1C[C@H](O)c1ccc(Br)cc1`, the melting point lay within 102 to 104 °C.

The compound `COc1cc(OC)cc(C(NCC(=O)Nc2c(C(C)C)cccc2C(C)C)c2ccccc2C)c1` (stereo not given) registered a melting point of 138 to 139 °C.

`CC(C)(C)OC(=O)Nc1ccc2c3c(cc([N+](=O)[O-])c2c1)N(C(=O)C(F)(F)F)CC3CCl` (stereo not given) came in with a melting point of 219 to 220 °C.

Take `O=c1c(Br)c(CCC2CC2)nc2ccccn12`: the melting point is 162 to 164 °C.

`O=C(O)COc1ccc(C(=O)C=Cc2ccccc2F)c(Cl)c1Cl` came in with a melting point of 191 to 194 °C.

For the compound `c1ccc(Oc2noc(-c3ccccc3)n2)cc1`, the melting point stood at 62 °C.

`CCOc1nsc(N)c1C#N`: the melting point fell in the range of 216 to 217 °C.

Take `Cc1cc(Cl)nn2c(-c3ccnc4[nH]ccc34)c(-c3ccc(F)cc3)nc12`: the melting point lay within 226 to 228 °C.

Regarding `CC(C)c1ccc2nc3ccc(C(=O)OCCCCc4cccnc4)cn3c(=O)c2c1`, the melting point lay within 95 to 96 °C.

`O=C1C=CC2(C=C1)N=C(N1CCN(Cc3ccc(F)cc3)CC1)C=C2c1ccccc1` showed a melting point of 188 °C.

`C#CCN1C(=O)c2cccc3cccc1c23` returned a melting point of 183 to 186 °C.

`O=C(NC(=O)c1c(F)cccc1F)Nc1cc(Cl)c(OC(F)(F)C(F)Cl)c(Cl)c1` (stereo not given) had a melting point of 178 to 180 °C.

Compound `COc1ccc2cc(C(C)C(=O)ON(C(N)=O)C(C)c3cc4ccccc4s3)ccc2c1` (stereo not given) showed a melting point of 62 to 70 °C.

On to `Clc1ccc(-c2nn(-c3ccc(Br)cc3)cc2CCc2nnn[nH]2)cc1`, for which the melting point lay within 164 to 166 °C.

In turn, `Cc1c(C)c2c(c(C)c1NC(=O)CC(C)(C)C)C(c1ccc(C(C)CC(=O)O)cc1)CO2` (stereo not given) gave a melting point of 209 to 210 °C.

`O=C(O)Cc1cc(C=Cc2ccccc2)ccc1O`: the melting point turned out to be 202 °C.

`CCOCc1cc2cc(Cl)ccc2oc1=Nc1cccc(OC)c1` yielded a melting point of 96.5 to 97.5 °C.

Turning to `CC(C)(C)c1cc(-c2nn(Cc3cccs3)c3ncccc23)cc(C(C)(C)C)c1O`, the melting point was 138 to 141 °C.

The compound `CCN(CC)S(=O)(=O)c1cc(Cl)c(Cl)c(Cl)c1SCCl` registered a melting point of 82 to 83 °C.

Consider `Cc1c(-c2ccccc2)oc2c(C(=O)NCCCN3CCN(c4cccc5c4OCC5)CC3)cccc2c1=O`, for which the melting point was 94 to 95 °C.

`CC(C)C(c1ccc2ncc(=O)[nH]c2c1)n1ccnc1` (stereo not given) had a melting point of 246 °C.

The compound `O=C1c2cccc(NC(=S)Nc3cccc4c3C3CC5(CCN3C4=O)SCCS5)c2C2CC3(CCN12)SCCS3` (stereo not given) gave a melting point of 188 °C.

`Cc1nc(C)c(Cl)c(NCc2nccc(CNCCO)c2Cl)n1` gave a melting point of 162 to 165 °C.

Turning to `CCCCn1c(=O)c(C(=O)OCC)c(O)c2ccccc21`, the melting point lay in the range of 147 to 148 °C.

Consider `CC1(C)Cc2ccc(C#N)cc2N(C(=O)Nc2ccccc2)C1`, for which the melting point lay in the range of 170 to 171 °C.

Regarding `CCCCCCOc1cc(-c2ccc3cc4c(cc3c2)C(C)(C)CCC4(C)C)ccc1C(=O)OC`, the melting point lay in the range of 102 to 104 °C.

Compound `C[C@](O)(COc1ccc(F)cc1)C(=O)Nc1ccc(C#N)c(C(F)(F)F)c1` came in with a melting point of 139 to 140 °C.

In the case of `O=[N+]([O-])c1ccc(-c2cnc3nc(S(=O)(=O)Cl)nn3c2)cc1`, the melting point was in the range of 159 to 167 °C.

The compound `COc1ccccc1C(=O)Nc1ccc(CN2C(=O)[C@H]3CCC[C@H]3N(C(=O)CN3C(=O)c4ccccc4C3=O)c3ccccc32)cc1` (relative stereo) gave a melting point of 279 to 281 °C.

As to `COC(=O)C(C)(C)CCCOc1cc(C)c([N+](=O)[O-])cc1C`, the melting point was 73 to 75 °C.

The compound `CC(=O)Oc1ccc(C(=O)Oc2ccc(C(=O)O)cc2)cc1` had a melting point of 98 to 100 °C.

Compound `Cc1ccc(C(=O)CC(=O)C2CC2)c(S(C)(=O)=O)c1` showed a melting point of 129 to 131 °C.

`CCOC(=O)CSc1nc(Cl)cc(NCCc2ccc(Cl)cc2)n1`: the melting point was 68 to 70 °C.

`Cc1ccc(S(=O)(=O)N2[C@H](CCCO)CC[C@H]2c2ccc(F)cc2)cc1` displayed a melting point of 96 °C.

In turn, `COc1ccc(C2=CCN(Cc3c[nH]c4ncccc34)CC2)cc1` gave a melting point of 202 to 204 °C.

For `CS(=O)(=O)n1cnc2cc(Cl)c(Cl)cc21`, the melting point was 191 to 193 °C.

The compound `COc1ccc(CF)c(CN(C(C)=O)c2cc(F)ccc2Oc2ccccc2)c1` returned a melting point of 71 to 72 °C.

Consider `CCN(CC)c1ccc(C2(c3c(C)n(CCOC)c4ccccc34)OC(=O)c3ccccc32)c(C)c1` (stereo not given), for which the melting point fell in the range of 140 to 143 °C.

Compound `O=C1CN(CCN2CC(=O)N(CN3CCCC3)C(=O)C2)CC(=O)N1CN1CCCC1` gave a melting point of 150 to 155 °C.

Compound `OCCNCCNCc1ccc(-c2cc3ncnc(Nc4ccc5[nH]ccc5c4)c3s2)cc1` registered a melting point of 78 to 95 °C.

For the compound `COCCN(C(=O)c1cnc(N2CC(C)(C)NC2=O)nc1N)c1cccc(C(F)(F)F)c1`, the melting point lay within 192 to 193 °C.

Turning to `C#CCOc1cc(F)cc(F)c1-n1c(=O)cc(C(F)(F)F)n(C)c1=O`, the melting point is 159 to 162 °C.

`N#Cc1cc(Cl)c(NC(=O)C(F)(F)F)c(Cl)c1`: the melting point is 134 to 136 °C.

As for `[N-]=[N+]=CC(=O)c1cccc(S(N)(=O)=O)c1`, the melting point came to 142 °C.

Take `CCCc1c(C(=O)C(C)C)c2ccc(C(N)=O)cc2n1Cc1ccccc1OC`: the melting point fell in the range of 174 to 175 °C.

`O=C(Cc1ccccn1)N1CCN(C(=O)Oc2ccc(Oc3ccc(C(F)(F)F)cn3)cc2)CC1` had a melting point of 143 to 146 °C.

In the case of `C=CCNc1c(C(=O)O)cnc2cn[nH]c12`, the melting point lay within 240 to 242 °C.

In general, melting point refers to the temperature of the solid-liquid transition.

The values are drawn from a melting point compilation (Tetko et al.; mined from patent text by program, amines drawn as free bases though some values may be those of a salt).
